Laboratory results reported in patent US20250134122A1, “PEDIATRIC NUTRITIONAL COMPOSITIONS AND METHODS FOR INFANTS DELIVERED BY C-SECTION” (Mead Johnson Nutrition Company, priority 2018, published 2025).

Test system: mouse fecal microbiota
Assay: Gut microbiota community structure (16S rRNA V4-V5 sequencing, β-diversity, PCoA) after 3 weeks on experimental diets
Type: in vivo
Settings: adult male C57bl/6 mice, 3 weeks of feeding; versus Control-fed or SAL-fed mice; ADONIS p<0.05
Source text: Adult male C57bl/6 strains of Mus musculus (Charles Rivers Laboratories, Wilmington, MA) between 6-8 weeks of age were used in the study. After being received from the vendor, mice were placed on one of three experimental diets. Animals were given ad libitum access to water, and maintained on the experimental diets for 3 weeks. Experimental diets were: (1) Control diet (AlN-93G mouse chow); (2) AlN-93G supplemented with galactooligosaccharides (GOS 21.2 g/kg)+polydextrose (PDX 6.6 g/kg)+sialyllactose (SAL 2 g/kg); (3) AlN-93G supplemented with SAL.
Colon contents were removed via direct excision for metabolomic analysis, and the colon tissue was briefly washed in a PBS bath so as to not disturb the mucous layer. DNA was extracted from the medial section of the colon (˜10 mg) using a Qiagen DNA Mini Kit, following manufacturer's instructions with slight modifications. Briefly, tissues were incubated for 45 min at 37° C. in lysozyme buffer (20 mg/ml lysozyme, 20 mM TrisHCL, 2 mM EDTA, 1.2% Triton-x, pH 8.0), then bead-beat for 150 sec with 0.7 mm zirconia beads. Samples were incubated at 56° C. for 2 hr with Buffer ATL and Proteinase K, then incubated at 56° C. for 30 min and 95° C. for 10 min upon addition of Buffer AL. […] DNA was quantified with the Qubit 2.0 Fluorometer (Life Technologies, Carlsbad, CA) using the dsDNA Broad Range Assay Kit. […]

sialyllactose [SAL]
mouse fecal microbiota community structure (β-diversity; Unweighted UniFrac), PCoA clustering: not achieved
